{"source": "patent US8183230B2", "about": "“Antimicrobial preservatives to achieve multi-dose formulation using beta-cyclodextrins for liquid dosage forms” (priority 2004, dated 2012)", "key": {"[1]": {"test": "Calculated non-sequestered concentrations in formulations", "conditions": "preferred formulation: 10 mgA/mL compound, 63 mg/mL SBE-CD, 3.3 mg/mL meta-cresol, pH 4.4", "excerpt": "These constants were used to calculate the concentration of non-sequestered meta-cresol in the formulations tested for anti-microbial efficacy.\nThe appearance of a plateau at the higher concentrations is only due to the limitation in the bactericidal efficacy measurement method. As the method consists in evaluating the population not killed by the preservative, when the whole population is dead (i.e. none is detectable any more ˜100%) the figure quoted is of the form: a log reduction greater than a value usually between 3 and 5.\nThe formulations were analyzed for preservative effectiveness."}, "[2]": {"test": "Equilibrium dialysis method for determining binding constants", "description": "In the present invention, the method to determine binding constants utilizes equilibrium dialysis in the development of a multi-use parenteral formulation containing SBE-CD and a preservative. In particular, the method was applied in developing a parenteral formulation comprising the compound of Formula Ia, a cyclodextrin (SBE-CD) and a preservative (meta-cresol). This approach is applicable to compounds other than the compound of Formula Ia in developing parenteral formulations and is within the scope of this invention. […] The significance of this procedure is its ability to measure the binding constant of multiple compounds competing for binding with the cyclodextrin. The experimental dialysis data also provides an easily interpreted representation of binding in the formulation by visualizing the degree of interaction by the equilibrium established following dialysis.\nEquilibrium dialysis permits calculation of binding constants by modeling the resultant diffusion rate across a semi-permeable membrane with an equilibrium end point. Equilibrium dialysis is performed by allowing the substrate in a solution containing bound substrate and ligand in a donor compartment of an equilibrium dialysis apparatus (cell) to equilibrate over time with an acceptor compartment. Ono, N., Hirayama, F., Arima, H., Uekama, K. “Determination of Stability Constant of β-Cyclodextrin Complexes Using the Membrane Permeation Technique and the Permeation Behavior of Drug Competing Agent-β-Cyclodextrin Ternary Systems” Eur. J. Pharm. Sci. 1999 9:133-139. The acceptor cell contains no ligand. The membrane is semi-permeable allowing the typically low molecular weight substrates to freely diffuse, while the cyclodextrin (MW=2163) remains in the donor compartment. Sampling from both compartments over time yields a time-concentration profile of substrate in both the donor and acceptor compartments of the dialysis cell.\nA mathematical model describing the diffusion rate of drug across the membrane can be derived for systems containing two or more components in solution. The dialysis rate and binding constant for the substrates are obtained by resolving the equation using nonlinear curve fitting software. Depending on the interactions between the components it is possible to describe the competitive binding that occurs in the solution. The equilibrium binding constant is a measure of the relative concentration of meta-cresol bound to SBE-CD according to the chemical equilibrium equation below: S=meta-cresol, L=SBE-CD. S:L indicates the complex formed between meta-cresol and SBE-CD.\nThe initial experiments established the equilibrium dialysis flux rates for compound of Formula Ia and meta-cresol across the 500 MWCO dialysis membrane. Three different concentrations of compound of Formula Ia were initially loaded into the donor side of the dialysis well. Samples were withdrawn at various time intervals and concentration of free component was measured using HPLC. […] The smoothed line was a fit to the data using the model for a unitary system presented in the discussion. The equilibrium point for all these control experiments was reached after 50% of the total drug was distributed uniformly across the donor and acceptor sides of the well. This asymptotic approach to equilibrium was modeled and the dialysis rates were calculated, Table II.\nThe primary method of analyzing the data was to perform calculations from equilibrium dialysis data, as described below. In particular, the rate of diffusion across the membrane was calculated using the following equations:\nThe rate of diffusion from the donor phase is defined by the following relationship: [D]t−[D]eq=([D]0−[D]eq)e^(−2kt) (1)\nRate of diffusion into the Acceptor Phase: [D]eq−[D]t=[D]eqe^(−2kt) (2) wherein\nThe basis of calculation in the presence of SBE-CD is to assume that complexation occurs only in the donor phase according to the standard complexation reaction:\nThe value for CyDF may be substituted into equation 8. […]"}, "[3]": {"test": "Solubility analysis (solubility method) for binding constant with SBE-CD", "method": "Traditional solubility methods were performed initially to determine the solubility and binding constants of compound of Formula Ia and preservative with SBE-CD.\nBinding was calculated for meta-cresol using solubility analysis. The experiment was performed at different concentrations of compound of Formula Ia to determine if there was any effect from the presence of drug in solution on the meta-cresol binding constant. Meta-cresol solubility was measured in excess (saturated) meta-cresol and the equilibrium binding constant was calculated using the following equation:\n[formula] Where St is the total solubility of meta-cresol, s0 is the inherent solubility of meta-cresol, Lt is the total concentration of SBE-CD (ligand) and K11 is the equilibrium binding constant of meta-cresol assuming a 1 to 1 binding stoichiometry."}, "[4]": {"test": "Stability measurements (accelerated stability)", "conditions": "3 mg/mL meta-cresol, 100 mg/mL SBE-CD, 10 mgA/mL compound of Formula Ia", "method": "Stability Measurements. Potential lead formulations were evaluated under various accelerated stability conditions in order to assess potency and purity of compound of Formula Ia, preservative content and SBE-CD content. For example, in one accelerated stability study, potential lead formulations were placed in stability ovens to measure short-term thermal stability. […] Purity and potency assays to measure compound of Formula Ia, as well as antimicrobial preservatives and SBE-CD content, were performed using validated HPLC methodology. SBE-CD was assayed using GTP 5984."}, "[5]": {"conditions": "binary, approximate ratio 1:1, Compound of Formula Ia 1.0, SBE-CD 1.0 mM"}, "[6]": {"conditions": "binary, approximate ratio 1:2, Compound of Formula Ia 0.5, SBE-CD 1.0 mM"}, "[7]": {"conditions": "binary, approximate ratio 1:4, Compound of Formula Ia 0.25, SBE-CD 1.0 mM"}, "[8]": {"conditions": "ternary, approximate ratio 1:1, Compound of Formula Ia 1.0, Meta-cresol 1.0 mM, SBE-CD 1.0 mM"}, "[9]": {"conditions": "ternary, approximate ratio 1:2, Compound of Formula Ia 0.5, Meta-cresol 0.5 mM, SBE-CD 1.0 mM"}, "[10]": {"conditions": "ternary, approximate ratio 1:4, Compound of Formula Ia 0.25, Meta-cresol 0.25 mM, SBE-CD 1.0 mM"}}, "data": [{"smiles": "COc1ccc(C(C)(C)C)cc1CN[C@H]1C2CCN(CC2)[C@H]1C(c1ccccc1)c1ccccc1", "note": "[compound of Formula Ia]", "values": [{"measurement": "calculated non-sequestered concentration", "setting": "[1]", "result": 1.4, "unit": "mg/mL"}, {"measurement": "drug binding constant greater than preservative", "setting": "[2]; binary systems with SBE-CD", "result": 13, "unit": "fold"}, {"measurement": "Keq", "setting": "[2]; [5]", "result": 740, "unit": "M⁻¹"}, {"measurement": "k", "setting": "[2]; [5]", "result": 0.015, "unit": "h⁻¹"}, {"measurement": "Keq", "setting": "[2]; [6]", "result": 1092, "unit": "M⁻¹"}, {"measurement": "k", "setting": "[2]; [6]", "result": 0.013, "unit": "h⁻¹"}, {"measurement": "Keq", "setting": "[2]; [7]", "result": 1444, "unit": "M⁻¹"}, {"measurement": "k", "setting": "[2]; [7]", "result": 0.012, "unit": "h⁻¹"}, {"measurement": "binding constant with SBE-CD", "setting": "[2]; equilibrium dialysis method, binary systems, drug ±352 M−1, n=3, preservative ±7 M−1", "result": 1092, "unit": "M⁻¹"}, {"measurement": "Keq", "setting": "[2]; [8]", "result": 690, "unit": "M⁻¹"}, {"measurement": "k", "setting": "[2]; [8]", "result": 0.018, "unit": "h⁻¹"}, {"measurement": "Keq", "setting": "[2]; [9]", "result": 720, "unit": "M⁻¹"}, {"measurement": "k", "setting": "[2]; [9]", "result": 0.013, "unit": "h⁻¹"}, {"measurement": "Keq", "setting": "[2]; [10]", "result": 520, "unit": "M⁻¹"}, {"measurement": "k", "setting": "[2]; [10]", "result": 0.011, "unit": "h⁻¹"}, {"measurement": "binding constant with SBE-CD", "setting": "[3]", "result": 1040, "unit": "M⁻¹"}, {"measurement": "binding constant", "setting": "[3]; pH 4.4", "result": 1040, "unit": "M⁻¹"}, {"measurement": "CONTENT (% INTENT)", "setting": "[4]; 5° C., 1 week, Amber-Treated", "result": 97, "unit": "% INTENT"}, {"measurement": "CONTENT (% INTENT)", "setting": "[4]; 5° C., 1 week, Amber-Untreated", "result": 96, "unit": "% INTENT"}, {"measurement": "CONTENT (% INTENT)", "setting": "[4]; 5° C., 3 weeks, Amber-Treated", "result": 96, "unit": "% INTENT"}, {"measurement": "CONTENT (% INTENT)", "setting": "[4]; 5° C., 3 weeks, Amber-Untreated", "result": 95, "unit": "% INTENT"}, {"measurement": "CONTENT (% INTENT)", "setting": "[4]; 5° C., 6 weeks, Amber-Treated", "result": 95, "unit": "% INTENT"}, {"measurement": "CONTENT (% INTENT)", "setting": "[4]; 5° C., 6 weeks, Amber-Untreated", "result": 94, "unit": "% INTENT"}, {"measurement": "CONTENT (% INTENT)", "setting": "[4]; 5° C., 12 weeks, Amber-Treated", "result": 94, "unit": "% INTENT"}, {"measurement": "CONTENT (% INTENT)", "setting": "[4]; 5° C., 12 weeks, Amber-Untreated", "result": 94, "unit": "% INTENT"}, {"measurement": "CONTENT (% INTENT)", "setting": "[4]; 50° C., 1 week, Amber-Treated", "result": 95, "unit": "% INTENT"}, {"measurement": "CONTENT (% INTENT)", "setting": "[4]; 50° C., 1 week, Amber-Untreated", "result": 96, "unit": "% INTENT"}, {"measurement": "CONTENT (% INTENT)", "setting": "[4]; 50° C., 3 weeks, Amber-Treated", "result": 95, "unit": "% INTENT"}, {"measurement": "CONTENT (% INTENT)", "setting": "[4]; 50° C., 3 weeks, Amber-Untreated", "result": 93, "unit": "% INTENT"}, {"measurement": "CONTENT (% INTENT)", "setting": "[4]; 50° C., 6 weeks, Amber-Treated", "result": 96, "unit": "% INTENT"}, {"measurement": "CONTENT (% INTENT)", "setting": "[4]; 50° C., 6 weeks, Amber-Untreated", "result": 94, "unit": "% INTENT"}, {"measurement": "CONTENT (% INTENT)", "setting": "[4]; 50° C., 12 weeks, Amber-Treated", "result": 95, "unit": "% INTENT"}, {"measurement": "CONTENT (% INTENT)", "setting": "[4]; 70° C., 1 week, Amber-Treated", "result": 94, "unit": "% INTENT"}, {"measurement": "CONTENT (% INTENT)", "setting": "[4]; 70° C., 1 week, Amber-Untreated", "result": 94, "unit": "% INTENT"}, {"measurement": "CONTENT (% INTENT)", "setting": "[4]; 70° C., 2 weeks, Amber-Treated", "result": 94, "unit": "% INTENT"}, {"measurement": "CONTENT (% INTENT)", "setting": "[4]; 70° C., 2 weeks, Amber-Untreated", "result": 94, "unit": "% INTENT"}, {"measurement": "CONTENT (% INTENT)", "setting": "[4]; 70° C., 3 weeks, Amber-Treated", "result": 92, "unit": "% INTENT"}, {"measurement": "CONTENT (% INTENT)", "setting": "[4]; 70° C., 3 weeks, Amber-Untreated", "result": 94, "unit": "% INTENT"}, {"measurement": "CONTENT (% INTENT)", "setting": "[4]; 70° C., 6 weeks, Amber-Treated", "result": 92, "unit": "% INTENT"}, {"measurement": "CONTENT (% INTENT)", "setting": "[4]; 70° C., 6 weeks, Amber-Untreated", "result": 93, "unit": "% INTENT"}, {"measurement": "CONTENT (% INTENT)", "setting": "[4]; 70° C., 12 weeks, Amber-Treated", "result": 93, "unit": "% INTENT"}, {"measurement": "CONTENT (% INTENT)", "setting": "[4]; 70° C., 12 weeks, Amber-Untreated", "result": 93, "unit": "% INTENT"}, {"measurement": "CONTENT (% INTENT)", "setting": "[4]; ICH Photostability, 1X ICH UV/FI, Amber-Treated", "result": 92, "unit": "% INTENT"}, {"measurement": "CONTENT (% INTENT)", "setting": "[4]; ICH Photostability, 1X ICH UV/FI, Amber-Untreated", "result": 93, "unit": "% INTENT"}, {"measurement": "loss / potency decrease", "setting": "[4]; after 12 weeks at 70° C., relative to 1 week at 5° C.", "result": 3, "unit": "%"}]}]}
